# Details: buffer; pH 7.4; 200.0 µM
row,Compound,solubility kinetic
1,O=C(Nc1ccccc1)N(C1=NCCC1)c1ccccc1,5.4 µg/mL
2,N#Cc1cc(Nc2c(N)nc[nH]c2=O)c([N+](=O)[O-])cc1C#N,> 44.6 µg/mL
3,Cc1ccnc(NC(=O)CC(c2ccccc2)c2ccccc2)n1,35.7 µg/mL
4,O=C1NC(=Nc2ccccc2)S/C1=C\c1ccccc1,0.8 µg/mL
5,Cc1ccc(-c2nc(C=Nc3cccc(C)c3)c(O)o2)cc1,0.7 µg/mL
6,O=C(Nc1ccc(F)cc1)N1CCCCCC1,> 35.4 µg/mL
7,Cc1ccc(-c2nc(Cl)nc3ccccc23)cc1,1.7 µg/mL
8,COc1cc2c(cc1OC)C(c1ccc([N+](=O)[O-])cc1)NC(=O)C2 (stereo not given),45.6 µg/mL
9,CCN(CC)CC(=O)c1c(N)n(Cc2ccccc2)c(=O)n(C)c1=O,51.4 µg/mL
10,C/C(=N\NC(N)=S)c1cccnc1,> 29.1 µg/mL
11,Cc1cc2c(cc1C)CN(c1ccccc1)C2,7.1 µg/mL
12,COc1ccc(S(=O)(=O)n2cnc3ccccc32)cc1.Cl,> 48.7 µg/mL
13,NC1=C(c2ccccc2)C(=O)NC1=O,> 28.2 µg/mL
14,O=c1cc(CN2CCN(S(=O)(=O)c3cccc(Cl)c3)CC2)c2ccc(O)cc2o1,13.3 µg/mL
15,Cl.NC(=S)NC(c1ccccc1)c1ccncc1 (stereo not given),39.5 µg/mL
16,CCN1CCC(N(C)C2CCCCC2)CC1,24 µg/mL
17,CC(=O)N(CCC(c1ccco1)C(C)C)Cc1ccc(Cl)cc1 (stereo not given),16.4 µg/mL
18,CCOC(=O)Cn1ccc(-c2ccccc2)c(C#N)c1=O,> 42.3 µg/mL
19,COc1ccc(Cl)cc1N1C(=O)c2cccnc2C1=O,> 43.3 µg/mL
20,O=[N+]([O-])c1cc(-c2ncccn2)c([N+](=O)[O-])s1,34.8 µg/mL
21,COc1ccc(OC)c(S(=O)(=O)NCCc2csc(-c3cccnc3)n2)c1,59 µg/mL
22,O=S(=O)(c1ccc(=S)[nH]c1)N1CCCCC1,21.9 µg/mL
23,N#C/C(=C\c1ccccc1O)C(=O)Nc1cccnc1,2.6 µg/mL
24,Nc1cc(C(F)(F)F)ccc1NCCc1ccccn1,36.8 µg/mL
25,CC(C)C(NS(=O)(=O)c1cccc(C(F)(F)F)c1)C(=O)O (stereo not given),> 48.8 µg/mL
26,CC(C)C1C(=O)CC(c2ccccc2)NC1c1ccccc1 (stereo not given),1.6 µg/mL
27,O=C(CN1CCCCCC1)Nc1ccccc1[N+](=O)[O-],14 µg/mL

# Next, values leading:
row,solubility kinetic,Compound
1,< 0.2 µg/mL,Oc1ccccc1-c1nc(NC2CCCC2)c2ccccc2n1
2,39.9 µg/mL,Cc1ccccc1N1CCN(CCC(=O)Nc2ccc(F)cc2)CC1
3,4.1 µg/mL,Cc1ccc(CNC(=O)N2CCN(c3ccc(C)cc3)CC2)cc1
4,> 48.1 µg/mL,COc1ccccc1CN(C)C(=O)c1cc(C)nc2ccccc12
5,> 44.8 µg/mL,COc1ccc(Cl)cc1C(=O)NCCN1CCOCC1
6,> 48.8 µg/mL,Cc1cccc(NC(=S)N2CCCCC2c2cccnc2)c1C (stereo not given)
7,2.8 µg/mL,CN(C)S(=O)(=O)c1cccc(C(=O)NCC2CCCCC2)c1
8,> 45.2 µg/mL,O=C(Cn1nc(Cl)nc1Cl)c1ccc([N+](=O)[O-])cc1
9,> 37.4 µg/mL,CC(C)(C)C(=O)NC(CC(=O)O)c1ccccc1 (stereo not given)
10,18.7 µg/mL,O=C(COC(=O)/C=C/c1ccccc1[N+](=O)[O-])NCc1ccco1
11,43.2 µg/mL,CCOc1cccc(NC(=O)c2cnccc2C(F)(F)F)c1
12,> 39.9 µg/mL,CCCn1c(=O)c2c(nc3n2CCS3)n(C)c1=O
13,> 48.7 µg/mL,O=C(Nc1c(Cl)ccc2nsnc12)c1ccc([N+](=O)[O-])o1
14,> 44.9 µg/mL,CCCn1nc(C(=O)NC2CCCC2)c2ccccc2c1=O
15,28.8 µg/mL,CCCCNC(=O)N(C)c1nc2ccccc2s1
16,> 42.4 µg/mL,CC(=O)Nc1ccccc1NC(=O)c1ccc(C)c(C)c1
17,> 46 µg/mL,O=C(CCSc1ccc(Cl)cc1)NCc1ccncc1

row,solubility kinetic,Compound
1,1.8 µg/mL,COc1ccc(NC(=O)Nc2c(SC)nsc2SC)cc1
2,> 34.8 µg/mL,COc1ccccc1CC(=O)Nc1ccon1
3,> 44.3 µg/mL,Cc1ccc(C(=O)OCC(=O)NCc2cccs2)s1
4,> 41.5 µg/mL,Cc1ccc(S(=O)(=O)NCc2cccnc2)cc1C
5,44.1 µg/mL,O=C(COC(=O)c1cccnc1Cl)NCc1cccs1
6,52.8 µg/mL,CCC(OC(=O)c1nsc(Cl)c1Cl)C(=O)NCC1CCCO1 (stereo not given)
7,> 54.3 µg/mL,Cc1cccnc1NC(=O)CCNC(=O)c1ccc(Br)cc1
8,16.3 µg/mL,N/C(CC(=O)Nc1ccc(F)cc1F)=N\OC(=O)c1cccs1
9,18.4 µg/mL,Cc1ccc(OCc2ccccc2C)c([N+](=O)[O-])n1
10,5.9 µg/mL,c1cc2c(cc1NC1CCCCCC1)OCO2
11,4.6 µg/mL,CC(C)CCNC(=O)c1cc2c(=O)n3ccccc3nc2s1
12,48.8 µg/mL,O=C(O)C1CCCCC1C(=O)NC(c1ccccc1)c1ccccc1 (stereo not given)
13,> 46 µg/mL,O=C(O)COCC(=O)NC1CCN(Cc2ccccc2)CC1
14,> 42 µg/mL,COC(=O)Cn1c(Cc2ccccc2)nc2ccccc21
15,7.4 µg/mL,O=C(NCc1ccccc1Cl)c1cc(=O)[nH]c2ccccc12
16,36.5 µg/mL,COC(=O)C1=C(C)N(C)C(=S)NC1c1cc(OC)ccc1OC (stereo not given)
